Patent US20260201008A1, “SECRETIN-DERIVED GLP1R SELECTIVE AGONISTS” (GUBRA A/S, priority 2023, published 2026)
pEC50: −log10 of the molar value. Like-named read-outs stand apart in the source and are kept apart here. Numbered stars: 1 amine (or outer) side, 2 acyl side, 3 side chain; on linkers, the order of the positions; unused ones are H or OH. Square brackets hold non-standard residues; d marks the D form. Side chains are listed from the residue outwards. Peptide text beside a SMILES is read from it. * marks the point of attachment. C20 diacid = O=C(O)CCCCCCCCCCCCCCCCCCC(=O)*; γGlu = O=C(O)[C@H](CCC(=O)[*:2])N[*:1]; AEEA = NCCOCCOCC(=O)O; Aib = CC(C)(N)C(=O)O

Legend:
[1] = Turbidity of crude library peptides (absorbance at 600 nm); type: physicochemical; settings: Physical stability of peptides
Summary of the method: (§1)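 Turbidity is the absorbance at 600 nm, taken before heating. Fibril signal is the mean ThT emission at 480 nm (450 nm excitation), read every 10 min over 72 h at 40° C with 700 rpm shaking between reads. Peptides at 267 μM, pH 4.0 acetate or pH 7.0 phosphate buffer (50 mM), 4 μM ThT final.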

GLP1R = GLP1R (Homo sapiens, UniProt P43220); test: hGLP1R potency, cAMP accumulation in CHO-K1 cells stably overexpressing hGLP1R; type: cell-based; set-up: host or cells: CHO-K1; settings: for Selectivity: SCTR EC50/GLP1R EC50 ratio; for EC50: cAMP accumulation, CHO-K1 cells overexpressing hGLP1R; for SCTR EC50/GLP1R EC50 ratio: selectivity for hGLP1R over hSCTR, cAMP accumulation in CHO-K1 cells
GLP1R, sequence (P43220 24-463): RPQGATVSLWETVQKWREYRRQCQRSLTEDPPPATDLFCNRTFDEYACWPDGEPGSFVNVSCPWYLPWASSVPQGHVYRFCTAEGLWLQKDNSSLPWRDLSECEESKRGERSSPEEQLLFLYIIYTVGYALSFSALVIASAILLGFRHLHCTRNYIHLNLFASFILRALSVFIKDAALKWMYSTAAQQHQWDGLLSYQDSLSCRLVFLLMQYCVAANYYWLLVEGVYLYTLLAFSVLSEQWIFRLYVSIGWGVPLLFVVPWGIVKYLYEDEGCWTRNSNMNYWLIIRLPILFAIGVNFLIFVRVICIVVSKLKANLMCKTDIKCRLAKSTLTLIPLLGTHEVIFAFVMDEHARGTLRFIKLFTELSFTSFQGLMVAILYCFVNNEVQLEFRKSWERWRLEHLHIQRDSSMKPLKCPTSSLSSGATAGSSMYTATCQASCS
Summary of the method: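 2000 cells/well, DPBS + 0.05% casein + 0.5 mM IBMX; 30 min RT stimulation; HTRF cAMP detection after 1 h. Purified: 3-fold ×11, n=2; crude: 10-fold ×5, n=1. EC50 by variable-slope fit.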

SCTR = SCTR (Homo sapiens, UniProt P47872); test: hSCTR potency, cAMP accumulation in CHO-K1 cells stably overexpressing hSCTR; type: cell-based; set-up: alternatively Euroscreen ES-712-AF; FAST-0161L; host or cells: CHO-K1; settings: for EC50: cAMP accumulation, CHO-K1 cells overexpressing hSCTR
SCTR, sequence (P47872 23-440): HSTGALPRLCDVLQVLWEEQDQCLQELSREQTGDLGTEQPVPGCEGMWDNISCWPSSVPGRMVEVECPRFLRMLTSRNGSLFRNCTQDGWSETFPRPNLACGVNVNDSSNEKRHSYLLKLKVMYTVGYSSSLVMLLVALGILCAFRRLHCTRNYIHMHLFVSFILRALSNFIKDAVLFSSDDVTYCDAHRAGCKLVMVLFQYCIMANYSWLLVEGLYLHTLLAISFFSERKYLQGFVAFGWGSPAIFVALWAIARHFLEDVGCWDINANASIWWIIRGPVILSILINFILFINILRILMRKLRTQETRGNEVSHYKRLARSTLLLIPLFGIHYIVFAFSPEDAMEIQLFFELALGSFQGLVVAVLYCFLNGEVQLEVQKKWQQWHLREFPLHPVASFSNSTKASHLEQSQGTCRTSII
Summary of the method: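 Thawed CHO-K1 cells carrying stable hSCTR are plated into casein/IBMX buffer (0.05%, 0.5 mM), dosed immediately for 30 min at room temperature, then cAMP is detected by TR-FRET. Purified peptides run as 11 three-fold dilutions in duplicate, and curves are fitted with variable slope.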

[2] = Fibril formation of crude library peptides (Thioflavin T); type: physicochemical; set-up: key: average ThT fluorescence emission at 480 nm (ex 450 nm), raw units; settings: Physical stability of peptides
Summary of the method: as §1

[3] = read-out: pEC50 hGLPR1 (converted)
[4] = read-out: pEC50 hSCTR (converted)
[5] = read-out: hGLP1R pEC50 (converted)
[6] = read-out: hSCTR pEC50 (converted)

Row | Structure (SMILES) | Turbidity (pH 7) [1] | Selectivity (GLP1R) | EC50 (GLP1R; [3]) [nM] | EC50 (SCTR; [4]) [nM] | Fibril formation [2] | EC50 (GLP1R; [5]) [nM] | SCTR EC50/GLP1R EC50 ratio (GLP1R) | EC50 (SCTR; [6]) [nM] | pEC50 (GLP1R) | pEC50 (SCTR)
1 | CC(C)C[C@H](NC(=O)[C@H](Cc1ccccc1)NC(=O)[C@H](CCCNC(=N)N)NC(=O)[C@H](CCC(N)=O)NC(=O)[C@H](C)NC(=O)[C@H](C)NC(=O)[C@H](C)NC(=O)[C@H](CCC(=O)O)NC(=O)[C@H](CCC(=O)O)NC(=O)[C@H](CCCCNC(=O)COCCOCCNC(=O)COCCOCCNC(=O)CC[C@H](NC(=O)CCCCCCCCCCCCCCCCCCC(=O)O)C(=O)O)NC(=O)[C@H](CC(C)C)NC(=O)[C@H](Cc1ccccc1)NC(=O)[C@H](CO)NC(=O)[C@@H](NC(=O)[C@H](CC(=O)O)NC(=O)[C@H](CO)NC(=O)[C@@H](NC(=O)[C@H](Cc1ccccc1)NC(=O)[C@@H](NC(=O)CNC(=O)[C@H](CCC(=O)O)NC(=O)C(C)(C)NC(=O)[C@@H](N)Cc1c[nH]cn1)[C@@H](C)O)[C@@H](C)O)C(C)C)C(=O)N[C@@H](CCC(=O)O)C(=O)N[C@@H](Cc1c[nH]cn1)C(=O)N[C@@H](CC(C)C)C(=O)N[C@H](C(N)=O)C(C)C [compound 63] (H-H[Aib]EGTFTSDVSFLK([AEEA-AEEA-γGlu-C20 diacid])EEAAAQRFLEHLV-NH2) | 0.09 | 201002 | 0.0501 | 10000 | 9044 | – | – | – | – | –
2 | CC(C)C[C@H](NC(=O)[C@H](Cc1ccccc1)NC(=O)[C@H](CCCNC(=N)N)NC(=O)[C@H](CCC(N)=O)NC(=O)C(C)(C)NC(=O)[C@H](C)NC(=O)[C@H](C)NC(=O)[C@@H](NC(=O)[C@H](CCC(=O)O)NC(=O)[C@H](CCCCNC(=O)COCCOCCNC(=O)COCCOCCNC(=O)CC[C@H](NC(=O)CCCCCCCCCCCCCCCCCCC(=O)O)C(=O)O)NC(=O)[C@H](CC(C)C)NC(=O)[C@H](CCCNC(=N)N)NC(=O)[C@H](CO)NC(=O)[C@@H](NC(=O)[C@H](CC(=O)O)NC(=O)[C@H](CO)NC(=O)[C@@H](NC(=O)[C@H](Cc1ccccc1)NC(=O)[C@@H](NC(=O)CNC(=O)[C@H](CCC(=O)O)NC(=O)C(C)(C)NC(=O)[C@@H](N)Cc1c[nH]cn1)[C@@H](C)O)[C@@H](C)O)C(C)C)[C@@H](C)O)C(=O)N[C@@H](CCC(=O)O)C(=O)N[C@@H](Cc1c[nH]cn1)C(=O)N[C@@H](CC(C)C)C(=O)N[C@H](C(N)=O)C(C)C [compound 85] (H-H[Aib]EGTFTSDVSRLK([AEEA-AEEA-γGlu-C20 diacid])ETAA[Aib]QRFLEHLV-NH2) | 0.09 | – | – | – | 19223 | 0.126 | 12682 | 1580 | – | –
3 | CC(C)C[C@H](NC(=O)[C@H](Cc1ccccc1)NC(=O)[C@H](CCCNC(=N)N)NC(=O)[C@H](CCC(N)=O)NC(=O)[C@H](CCC(N)=O)NC(=O)[C@H](C)NC(=O)[C@H](C)NC(=O)[C@@H](NC(=O)[C@H](CCC(=O)O)NC(=O)[C@H](CCCCNC(=O)COCCOCCNC(=O)COCCOCCNC(=O)CC[C@H](NC(=O)CCCCCCCCCCCCCCCCCCC(=O)O)C(=O)O)NC(=O)[C@H](CC(C)C)NC(=O)[C@H](Cc1ccc(O)cc1)NC(=O)[C@H](CO)NC(=O)[C@@H](NC(=O)[C@H](CC(=O)O)NC(=O)[C@H](CO)NC(=O)[C@@H](NC(=O)[C@H](Cc1ccccc1)NC(=O)[C@@H](NC(=O)CNC(=O)[C@H](CCC(=O)O)NC(=O)C(C)(C)NC(=O)[C@@H](N)Cc1c[nH]cn1)[C@@H](C)O)[C@@H](C)O)C(C)C)[C@@H](C)O)C(=O)N[C@@H](CCC(=O)O)C(=O)N[C@@H](Cc1c[nH]cn1)C(=O)N[C@@H](CC(C)C)C(=O)N[C@H](C(N)=O)C(C)C [compound 58] (H-H[Aib]EGTFTSDVSYLK([AEEA-AEEA-γGlu-C20 diacid])ETAAQQRFLEHLV-NH2) | 0.08 | 35408 | 0.0251 | 1000 | 22040 | – | – | – | – | –
4 | CC(C)C[C@H](NC(=O)[C@H](Cc1ccccc1)NC(=O)[C@H](CCCNC(=N)N)NC(=O)[C@H](CCC(N)=O)NC(=O)[C@H](CC(C)C)NC(=O)C(C)(C)NC(=O)[C@H](C)NC(=O)[C@H](CCC(=O)O)NC(=O)[C@H](CCC(=O)O)NC(=O)[C@H](Cc1c[nH]cn1)NC(=O)[C@H](CC(C)C)NC(=O)[C@H](Cc1ccc(O)cc1)NC(=O)[C@H](CO)NC(=O)[C@@H](NC(=O)[C@H](CC(=O)O)NC(=O)[C@H](CO)NC(=O)[C@@H](NC(=O)[C@H](Cc1ccccc1)NC(=O)[C@@H](NC(=O)CNC(=O)[C@H](CCC(=O)O)NC(=O)C(C)(C)NC(=O)[C@@H](N)Cc1c[nH]cn1)[C@@H](C)O)[C@@H](C)O)C(C)C)C(=O)N[C@@H](CCC(=O)O)C(=O)N[C@@H](CCCCNC(=O)COCCOCCNC(=O)COCCOCCNC(=O)CC[C@H](NC(=O)CCCCCCCCCCCCCCCCCCC(=O)O)C(=O)O)C(=O)N[C@@H](CC(C)C)C(=O)N[C@H](C(N)=O)C(C)C [compound 164] (H-H[Aib]EGTFTSDVSYLHEEA[Aib]LQRFLEK([AEEA-AEEA-γGlu-C20 diacid])LV-NH2) | 0.08 | – | – | – | 4789 | 0.02 | 11362 | 251 | – | –
5 | CC(C)C[C@H](NC(=O)[C@H](Cc1ccccc1)NC(=O)[C@H](CCCNC(=N)N)NC(=O)[C@H](CCC(N)=O)NC(=O)[C@H](CC(N)=O)NC(=O)C(C)(C)NC(=O)[C@H](C)NC(=O)[C@H](CCC(=O)O)NC(=O)[C@H](CCC(=O)O)NC(=O)[C@H](CCCCNC(=O)COCCOCCNC(=O)COCCOCCNC(=O)CC[C@H](NC(=O)CCCCCCCCCCCCCCCCCCC(=O)O)C(=O)O)NC(=O)[C@H](CC(C)C)NC(=O)[C@H](Cc1ccc(O)cc1)NC(=O)[C@H](CO)NC(=O)[C@@H](NC(=O)[C@H](CC(=O)O)NC(=O)[C@H](CO)NC(=O)[C@@H](NC(=O)[C@H](Cc1ccccc1)NC(=O)[C@@H](NC(=O)CNC(=O)[C@H](CCC(=O)O)NC(=O)C(C)(C)NC(=O)[C@@H](N)Cc1c[nH]cn1)[C@@H](C)O)[C@@H](C)O)C(C)C)C(=O)N[C@@H](CCC(=O)O)C(=O)N[C@@H](Cc1c[nH]cn1)C(=O)N[C@@H](CC(C)C)C(=O)N[C@H](C(N)=O)C(C)C [compound 131] (H-H[Aib]EGTFTSDVSYLK([AEEA-AEEA-γGlu-C20 diacid])EEA[Aib]NQRFLEHLV-NH2) | 0.09 | – | – | – | 2709 | 0.00501 | 996093 | 5010 | – | –
6 | CC(C)C[C@H](NC(=O)[C@H](CCC(=O)O)NC(=O)[C@H](CCCCNC(=O)COCCOCCNC(=O)COCCOCCNC(=O)CC[C@H](NC(=O)CCCCCCCCCCCCCCCCCCC(=O)O)C(=O)O)NC(=O)[C@H](CC(C)C)NC(=O)[C@@H](NC(=O)[C@H](CO)NC(=O)[C@@H](NC(=O)[C@H](CC(=O)O)NC(=O)[C@H](CO)NC(=O)[C@@H](NC(=O)[C@H](Cc1ccccc1)NC(=O)[C@@H](NC(=O)CNC(=O)[C@H](CCC(=O)O)NC(=O)C(C)(C)NC(=O)[C@@H](N)Cc1c[nH]cn1)[C@@H](C)O)[C@@H](C)O)C(C)C)[C@@H](C)O)C(=O)N[C@@H](C)C(=O)N[C@@H](C)C(=O)N[C@@H](C)C(=O)N[C@@H](CCC(N)=O)C(=O)N[C@@H](CCCNC(=N)N)C(=O)N[C@@H](Cc1ccccc1)C(=O)N[C@@H](CC(C)C)C(=O)N[C@@H](CCC(=O)O)C(=O)N[C@@H](Cc1c[nH]cn1)C(=O)N[C@@H](CC(C)C)C(=O)N[C@H](C(N)=O)C(C)C [compound 11] (H-H[Aib]EGTFTSDVSTLK([AEEA-AEEA-γGlu-C20 diacid])ELAAAQRFLEHLV-NH2) | 0.08 | 11347 | – | – | 7854 | – | – | – | 10.30 | 6.20
